Data from patent US20260374766A1, “METHODS FOR TREATING CANCER” (Antares Therapeutics, Inc., priority 2022, published 2026).
Like-named read-outs stand apart in the source and are kept apart here.

Columns and labels:
[1] = molecular target: T1, p53 Y220C mutant protein (amino acid residues 94-293) (Homo sapiens, UniProt P04637, Y220C); assay: Surface Plasmon Resonance (SPR) assay, Kd_kinetic; assay type: binding; details: read-out: SPR P53 Y220C KD kinetic
T1 construct: p53 Y220C mutant protein (amino acid residues 94-293)
T1 sequence (P04637 94-293, stated change not applied): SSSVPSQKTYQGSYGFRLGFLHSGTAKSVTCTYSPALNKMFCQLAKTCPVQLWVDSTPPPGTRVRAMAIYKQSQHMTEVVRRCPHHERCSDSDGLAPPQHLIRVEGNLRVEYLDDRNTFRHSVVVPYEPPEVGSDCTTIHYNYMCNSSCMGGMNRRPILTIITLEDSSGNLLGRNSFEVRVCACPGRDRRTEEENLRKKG
In short: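 Biacore 8K SPR; 16 or 20 °C; Tris 50 mM pH 7.5, NaCl 100 mM, DTT 1 mM, Brij35 0.01%, Tween-20 0.05%, DMSO 1%. Kd_kinetic by 1:1 fit.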

[2] = molecular target: p53 Y220C (Homo sapiens, UniProt P04637, Y220C); assay: Luciferase Reporter Assay (Luc), p53 response element, NClH1299 cells with inducible p53 Y220C; assay type: cell-based; details: luciferase reporter, NClH1299 inducible p53 Y220C, 6 hour; for AC50: read-out: Luc P53 Y220C AC50
In short: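 Luminescence readout (One-Glo, 5 min shaking at RT, read at once) after 6 h compound exposure; cells pre-induced 24 h with 0.5 ug/mL doxycycline, 5,000/well.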

[3] = tested on: NUGC3 p53 Y220C; assay: Cell Proliferation Assay (CellTiter-Glo, CTG), NUGC3 p53 Y220C; assay type: cell-based; details: Homo sapiens, NUGC-3, 120 h, NUGC3 cells, 5 days, CellTiter-Glo
In short: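 Tet-One inducible p53 Y220C or R273H constructs were stably introduced into NCI-H1299 by lentiviral transduction; NUGC3 was used as is. Cells (250-500 per well) were exposed to compound for 5 days, then CellTiter-Glo was added for 10 min at room temperature and IC50 was calculated from luminescence.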

[4] = tested on: H1299 p53 Y220C; assay: Cell Proliferation Assay (CellTiter-Glo, CTG), H1299 p53 Y220C (NClH1299-inducible p53 Y220C); assay type: cell-based; details: Homo sapiens, NCI-H1299, 120 h, NClH1299-inducible p53 Y220C cells, 5 days, CellTiter-Glo
In short: (§1)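 NClH1299 lines stably transduced with Tet-inducible p53 Y220C or R273H, plus NUGC3, were treated with compound for 5 days at 250-500 cells/well. IC50 derived from CellTiter-Glo luminescent signal after 10 min room-temperature incubation.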

[5] = tested on: H1299 p53 R273H; assay: Cell Proliferation Assay (CellTiter-Glo, CTG), H1299 p53 R273H (NClH1299-inducible p53 R273H); assay type: cell-based; details: Homo sapiens, NCI-H1299, 120 h, NClH1299-inducible p53 R273H cells, 5 days, CellTiter-Glo
In short: as §1

SMILES	Kd ([1]; SPR, p53 Y220C)	AC50 [2]	Emax [2]	IC50 [3]	IC50 [4]	IC50 [5]	Kd [1]
CN1CCO[C@@H](CNC(=O)c2ccc(NCC#Cc3cc4c(N[C@@H]5CCN(C)C[C@@H]5F)cccn4c3SC(F)(F)F)cc2)C1 [Example 380]	< 10 nM	< 750 nM	80 to 90%	< 750 nM	< 750 nM	5 to 8 µM	
CNC(=O)c1ccc(OC)c(NCC#Cc2cn3c(N[C@@H]4CCNC[C@@H]4F)cccc3c2SC(F)(F)F)c1 [Example 381]	< 10 nM	< 750 nM	> 90%	< 750 nM	< 750 nM	8 to 10 µM	
CN1CC[C@@H](Nc2cccn3c(SC(F)(F)F)c(C#CCNc4ccc(C(=O)NC[C@H]5CCO5)cc4)cc23)[C@@H](F)C1 [Example 382]	< 10 nM	< 750 nM	> 90%	< 750 nM	< 750 nM	8 to 10 µM	
C[C@H](O)[C@H](C)NC(=O)c1ccc(NCC#Cc2cc3c(N[C@@H]4CCN(C)C[C@@H]4F)cccn3c2SC(F)(F)F)cc1 [Example 383]	< 10 nM	< 750 nM	> 90%	< 750 nM	< 750 nM	8 to 10 µM	
CN1CC[C@@H](Nc2cccn3c(SC(F)(F)F)c(C#CCNc4ccc(C(=O)NC[C@@H](O)CO)cc4)cc23)[C@@H](F)C1 [Example 384]	< 10 nM	< 750 nM	> 90%	< 750 nM	< 750 nM	≥ 10 µM	
CN1CC[C@@H](Nc2cccn3c(SC(F)(F)F)c(C#CCNc4ccc(P(C)(C)=O)cc4)cc23)[C@@H](F)C1 [Example 385]	< 10 nM	< 750 nM	80 to 90%	< 750 nM	< 750 nM	≥ 10 µM	
CNC(=O)c1ccc(NCC#Cc2cc3c(N[C@@H]4CN(C)C[C@@H]4F)cccn3c2SC(F)(F)F)c(OC)c1 [Example 386]	< 10 nM	< 750 nM	> 90%	< 750 nM	< 750 nM	≥ 10 µM	
COc1cc(C(=O)NCC2(O)CC2)ccc1NCC#Cc1cc2c(N[C@@H]3CCNC[C@@H]3F)cccn2c1SC(F)(F)F [Example 387]	< 10 nM	< 750 nM	80 to 90%	< 750 nM	< 750 nM	5 to 8 µM	
CN1CCO[C@H](CNC(=O)c2ccc(NCC#Cc3cc4c(N[C@@H]5CCN(C)C[C@@H]5F)cccn4c3SC(F)(F)F)cc2)C1 [Example 388]	< 10 nM	< 750 nM	80 to 90%	< 750 nM	< 750 nM	5 to 8 µM	
CN1CC[C@H](Nc2cccn3c(SC(F)(F)F)c(C#CCNc4ccc(P(C)(C)=O)c5scnc45)cc23)[C@H](F)C1 [Example 389, 7-(dimethylphosphoryl)-N-[3-(8-{[(3R,4S)-3-fluoro-1-methylpiperidin-4-yl]amino}-3-[(trifluoromethyl)sulfanyl]indolizin-2-yl)prop-2-yn-1-yl]-1,3-benzothiazol-4-amine; formic acid]		< 750 nM	> 90%	< 750 nM	< 750 nM	8 to 10 µM	< 10 nM
COc1nc(P(C)(C)=O)ccc1NCC#Cc1cc2c(N[C@@H]3CCN(C)C[C@@H]3F)cccn2c1SC(F)(F)F [Example 390]	< 10 nM	< 750 nM	> 90%	< 750 nM	< 750 nM	5 to 8 µM	
O=C(N[C@H]1C[C@@H](O)C1)c1ccc(NCC#Cc2cc3c(N[C@@H]4CCNC[C@@H]4F)cccn3c2SC(F)(F)F)cc1 [Example 391]	< 10 nM	< 750 nM	80 to 90%	< 750 nM	< 750 nM	≥ 10 µM	
CNC(=O)c1ccc(NCC#Cc2cc3c(N[C@@H]4CNC[C@@H]4F)cccn3c2SC(F)(F)F)c(OC)c1 [Example 392]	< 10 nM	< 750 nM	80 to 90%	< 750 nM	< 750 nM	≥ 10 µM	
CNC(=O)c1ccc(OC)c(NCC#Cc2cn3c(N[C@@H]4CCN(C)C[C@@H]4F)cccc3c2SC(F)(F)F)c1 [Example 393]	< 10 nM	< 750 nM	> 90%	< 750 nM	< 750 nM	5 to 8 µM	
COc1cc(S(C)(=O)=O)ccc1NCC#Cc1cc2c(N[C@@H]3CCNC[C@@H]3F)cccn2c1SC(F)F [Example 394]	< 10 nM	< 750 nM	> 90%	< 750 nM	< 750 nM	5 to 8 µM	
